# Biological target: PIK3CA (human) (UniProt P42336)
# Assay: Assessment of PIK3CA Kinase Activity
# Sequence of PIK3CA (human) (P42336 whole entry, looked up): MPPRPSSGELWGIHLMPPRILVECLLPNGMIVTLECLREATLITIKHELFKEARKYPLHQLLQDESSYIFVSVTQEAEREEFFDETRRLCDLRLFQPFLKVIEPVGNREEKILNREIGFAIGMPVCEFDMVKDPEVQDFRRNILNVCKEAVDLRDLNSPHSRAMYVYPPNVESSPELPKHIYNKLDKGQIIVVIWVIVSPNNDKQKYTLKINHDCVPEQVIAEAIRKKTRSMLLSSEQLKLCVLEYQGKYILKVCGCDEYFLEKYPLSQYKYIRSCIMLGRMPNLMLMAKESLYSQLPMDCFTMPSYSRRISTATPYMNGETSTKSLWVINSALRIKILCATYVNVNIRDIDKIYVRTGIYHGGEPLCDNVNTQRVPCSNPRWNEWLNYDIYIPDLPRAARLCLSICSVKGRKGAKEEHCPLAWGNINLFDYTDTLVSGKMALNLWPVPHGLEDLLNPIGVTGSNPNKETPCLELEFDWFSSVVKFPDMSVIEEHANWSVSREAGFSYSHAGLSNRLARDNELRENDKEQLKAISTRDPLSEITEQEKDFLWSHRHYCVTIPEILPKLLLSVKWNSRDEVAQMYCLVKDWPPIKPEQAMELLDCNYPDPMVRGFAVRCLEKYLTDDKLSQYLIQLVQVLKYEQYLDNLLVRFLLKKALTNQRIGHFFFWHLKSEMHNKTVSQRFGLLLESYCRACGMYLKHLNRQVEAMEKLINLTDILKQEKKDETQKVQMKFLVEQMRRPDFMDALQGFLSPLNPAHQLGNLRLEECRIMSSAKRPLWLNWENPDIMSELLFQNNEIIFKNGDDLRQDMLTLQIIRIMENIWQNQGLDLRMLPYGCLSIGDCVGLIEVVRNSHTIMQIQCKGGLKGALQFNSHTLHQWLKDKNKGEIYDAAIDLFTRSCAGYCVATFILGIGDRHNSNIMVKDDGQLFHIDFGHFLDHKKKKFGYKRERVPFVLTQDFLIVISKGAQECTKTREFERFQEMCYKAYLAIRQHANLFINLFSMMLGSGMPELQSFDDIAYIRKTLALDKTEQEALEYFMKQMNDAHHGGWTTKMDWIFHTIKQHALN
row,IC50,Compound
1,50 to 200 nM,CN1CCN(C(=O)c2ccc(NC(=O)Nc3ccc(-c4nc(N5CCOCC5)c5ccc(-c6cnn(C)c6)cc5n4)cc3)cc2)CC1
2,< 50 nM,CNC(=O)c1ccc(NC(=O)Nc2ccc(-c3nc(N4CCOCC4)c4ccc(-c5ccco5)cc4n3)cc2)cc1
3,< 50 nM,CN(C)C(=O)c1ccc(NC(=O)Nc2ccc(-c3nc(N4CCOCC4)c4ccc(-c5ccc(C#N)o5)cc4n3)cc2)cc1
4,50 to 200 nM,CN(C)CCNC(=O)c1ccc2c(N3CCOCC3)nc(-c3ccc(NC(=O)Nc4ccc(C(=O)N(C)C)cc4)cc3)nc2c1
5,50 to 200 nM,CN(C)CCn1cc(-c2ccc3c(N4CCOCC4)nc(-c4ccc(NC(=O)Nc5ccc(C(=O)N(C)C)cc5)cc4)nc3c2)cn1
6,< 50 nM,COc1ccc(-c2ccc3c(N4CCOCC4)nc(-c4ccc(NC(=O)Nc5ccc(C(=O)N(C)C)cc5)cc4)nc3c2)cn1
7,50 to 200 nM,CN(C)C(=O)c1ccc(NC(=O)Nc2ccc(-c3nc(N4CCOCC4)c4ccc(-c5cccc(F)c5)cc4n3)cc2)cc1
8,< 50 nM,CN(C)C1CCN(C(=O)c2ccc(NC(=O)Nc3ccc(-c4nc(N5CCOCC5)c5ccc(-c6cccnc6F)cc5n4)cn3)cc2)CC1
9,< 50 nM,CN(C)[C@H]1CCN(C(=O)c2ccc(NC(=O)Nc3ccc(-c4nc(N5CCOCC5)c5ncc(-c6cnn(C)c6)cc5n4)cc3F)cc2)C1
10,< 50 nM,N[C@H]1CCN(C(=O)c2ccc(NC(=O)Nc3ccc(-c4nc(N5CCOCC5)c5ccc(-c6cncnc6)cc5n4)cc3)cc2)C1
11,50 to 200 nM,CN(C)C(=O)c1ccc(NC(=O)Nc2ccc(-c3nc(N4CCOCC4)c4ccc(-c5cccnc5F)cc4n3)cc2)cc1
12,< 50 nM,Cc1noc(C)c1-c1ccc2c(N3CCOCC3)nc(-c3ccc(NC(=O)Nc4ccc(C(=O)N(C)C)cc4)cc3)nc2c1
13,< 50 nM,CN(C)C(=O)c1ccc(NC(=O)Nc2ccc(-c3nc(N4CCOCC4)c4ccc(-c5cnc(N(C)C)nc5)cc4n3)cc2)cc1
14,< 50 nM,CN(C)[C@@H]1CCN(C(=O)c2ccc(NC(=O)Nc3ccc(-c4nc(N5CCOCC5)c5ccc(-c6cncnc6)cc5n4)cc3)cc2)C1
15,50 to 200 nM,CN(C)[C@@H]1CCN(C(=O)c2ccc(NC(=O)Nc3ccc(-c4nc(N5CCOCC5)c5ccc(C(C)(C)O)cc5n4)cc3)cc2)C1
16,< 50 nM,CN1CCN(C(=O)c2ccc(NC(=O)Nc3ccc(-c4nc(N5CCOCC5)c5ccc(-c6cccnc6)cc5n4)cc3)cc2)CC1
17,50 to 200 nM,CN(C)C(=O)c1ccc(NC(=O)Nc2ccc(-c3nc(N4CCOCC4)c4ccc(C(C)(C)O)cc4n3)cc2F)cc1
18,50 to 200 nM,Cc1noc(C)c1-c1ccc2c(N3CCOCC3)nc(-c3ccc(NC(=O)Nc4ccc(C(=O)N5CC[C@H](N(C)C)C5)cc4)cc3)nc2c1
19,50 to 200 nM,COc1cc2nc(-c3ccc(NC(=O)Nc4ccc(C(=O)N(C)C)cc4)cc3)nc(N3CCOCC3)c2cc1OC
20,< 50 nM,CN(C)C(=O)c1ccc(NC(=O)Nc2ccc(-c3nc(N4CCOCC4)c4ccc(-c5cccnc5)cc4n3)cc2)cc1
21,< 50 nM,CN(C)C(=O)c1ccc(NC(=O)Nc2ccc(-c3nc(N4CCOCC4)c4ccc(-c5cccs5)cc4n3)cc2)cc1
22,50 to 200 nM,Cc1ccc(-c2ccc3c(N4CCOCC4)nc(-c4ccc(NC(=O)Nc5ccc(C(=O)NCCN(C)C)cc5)cc4)nc3c2)o1
23,< 50 nM,CN(C)C(=O)c1ccc(NC(=O)Nc2ccc(-c3nc(N4CCOCC4)c4ccc(-c5cccc(N(C)C)c5)cc4n3)cc2)cc1
24,< 50 nM,CN(C)C1CCN(C(=O)c2ccc(NC(=O)Nc3ccc(-c4nc(N5CCOCC5)c5ncc(-c6cnn(C)c6)cc5n4)cc3)cc2)CC1

# Further lines, the compound ahead of its results:
row,Compound,IC50
1,CN(C)C(=O)c1ccc(NC(=O)Nc2ccc(-c3nc(N4CCOCC4)c4cc(F)c(-c5cccnc5)cc4n3)cc2)c(F)c1,< 50 nM
2,CN(C)CCN(C)C(=O)c1ccc(NC(=O)Nc2ccc(-c3nc(N4CCOCC4)c4ccc(-c5cncnc5)cc4n3)cc2)cc1,< 50 nM
3,CN(C)C(=O)c1ccc(NC(=O)Nc2ccc(-c3nc(N4CCOCC4)c4cc(F)c(-c5cncnc5)cc4n3)cc2F)cc1,< 50 nM
4,CN(C)C(=O)c1ccc(NC(=O)Nc2ccc(-c3nc(N4CCOCC4)c4ncc(-c5cnc(N)nc5)cc4n3)cc2F)cc1,< 50 nM
5,CN(C)C(=O)c1ccc(NC(=O)Nc2ccc(-c3nc(N4CCOCC4)c4ncc(-c5cnn(C)c5)cc4n3)cc2F)cn1,< 50 nM
6,CN(C)C(=O)c1ccc(NC(=O)Nc2ccc(-c3nc(N4CCOCC4)c4ccc(-c5cccnc5)cc4n3)cc2)cc1F,< 50 nM
7,CN(C)C(=O)c1ccc(NC(=O)Nc2ccc(-c3nc(N4CCOCC4)c4ncc(-c5cnn(C)c5)cc4n3)c(F)c2F)cc1,< 50 nM
8,COc1ncccc1-c1ccc2c(N3CCOCC3)nc(-c3ccc(NC(=O)Nc4ccc(C(=O)N(C)C)cc4)cc3)nc2c1,< 50 nM
9,CN(C)C(=O)c1ccc(NC(=O)Nc2ccc(-c3nc(N4CCOCC4)c4cc(F)c(-c5cccnc5F)cc4n3)cc2)cc1,< 50 nM
10,CS(=O)(=O)c1cccc(-c2ccc3c(N4CCOCC4)nc(-c4ccc(NC(=O)Nc5ccc(C(N)=O)cc5)cc4)nc3c2)c1,50 to 200 nM
11,CN(C)C(=O)c1ccc(NC(=O)Nc2ccc(-c3nc(N4CCOCC4)c4ccc(-c5ccncc5)cc4n3)cc2F)cc1,50 to 200 nM
12,CN(C)C(=O)c1ccc(NC(=O)Nc2ccc(-c3nc(N4CCOCC4)c4cc(F)c(-c5cccnc5)cc4n3)cc2)cc1,< 50 nM
13,CC1CN(c2nc(-c3ccc(NC(=O)Nc4ccc(C(=O)N(C)C)cc4)cc3)nc3cc(-c4cnn(C)c4)cnc23)CCO1 (configuration not stated),< 50 nM
14,CN(C)C(=O)c1ccc(NC(=O)Nc2ccc(-c3nc(N4CCOCC4)c4ccc(-c5ccco5)cc4n3)cn2)cc1,< 50 nM
15,CN(C)C(=O)c1ccc(NC(=O)Nc2ccc(-c3nc(N4CCOCC4)c4cc(F)c(-c5cccnc5F)cc4n3)cn2)cc1,< 50 nM
16,CN(C)C(=O)c1ccc(NC(=O)Nc2ccc(-c3nc(N4CCOCC4)c4ccc(-c5ccccn5)cc4n3)cc2)c(F)c1,< 50 nM
17,Cc1ccc(-c2ccc3c(N4CCOCC4)nc(-c4ccc(NC(=O)Nc5ccc(C(=O)N(C)C)cc5)cc4F)nc3c2)o1,50 to 200 nM
18,COc1ncccc1-c1ccc2c(N3CCOCC3)nc(-c3ccc(NC(=O)Nc4ccc(C(=O)N(C)C)cc4)cc3F)nc2c1,50 to 200 nM
19,CN(C)CCN(C)C(=O)c1ccc(NC(=O)Nc2ccc(-c3nc(N4CCOCC4)c4ccc(-c5ccncc5)cc4n3)cc2)cc1,< 50 nM
20,CN(C)C(=O)c1ccc(NC(=O)Nc2ccc(-c3nc(N4CCOCC4)c4cccc(-c5cccc(O)c5)c4n3)cc2)cc1,50 to 200 nM
21,CN1CCN(C(=O)c2ccc(NC(=O)Nc3ccc(-c4nc(N5CCOCC5)c5cc(F)c(-c6cccnc6)cc5n4)cc3)cc2)CC1,< 50 nM
22,CN(C)C(=O)c1ccc(NC(=O)Nc2ccc(-c3nc(N4CCOCC4)c4cc(F)c(-c5ccco5)cc4n3)cc2)cc1,50 to 200 nM
23,CN(C)C(=O)c1ccc(NC(=O)Nc2ccc(-c3nc(N4CCOCC4)c4ncc(-c5cccc(S(C)(=O)=O)c5)cc4n3)cc2)cc1,< 50 nM
24,CN(C)C(=O)c1ccc(NC(=O)Nc2ccc(-c3nc(N4CCOCC4)c4ccc(-c5ccco5)cc4n3)cc2F)cc1,50 to 200 nM

row,Compound,IC50
1,COc1ncc(-c2cnc3c(N4CCOCC4)nc(-c4ccc(NC(=O)Nc5ccc(C(=O)N(C)C)cc5)cc4)nc3c2)cn1,< 50 nM
2,CN(C)C(=O)c1ccc(NC(=O)Nc2ccc(-c3nc(N4CCOCC4)c4ncc(-c5cccnc5F)cc4n3)cc2)cc1F,< 50 nM
3,Cc1ncccc1-c1ccc2c(N3CCOCC3)nc(-c3ccc(NC(=O)Nc4ccc(C(=O)N(C)C)cc4)cc3F)nc2c1,< 50 nM
4,CN(C)C(=O)c1ccc(NC(=O)Nc2ccc(-c3nc(N4CCOCC4)c4ccc(-c5cncnc5)cc4n3)c(F)c2)cc1,< 50 nM
5,CN(C)C(=O)c1ccc(NC(=O)Nc2ccc(-c3nc(N4CCOCC4)c4ccc(-c5cccnc5)cc4n3)c(F)c2)cc1,< 50 nM
6,CN(C)C(=O)c1ccc(NC(=O)Nc2ccc(-c3nc(N4CCOCC4)c4ccc(-c5ccccn5)cc4n3)cc2)cc1F,< 50 nM
7,CN1CCN(C(=O)c2ccc(NC(=O)Nc3ccc(-c4nc(N5CCOCC5)c5ccc(-c6ccncc6)cc5n4)cc3F)cc2)CC1,50 to 200 nM
8,CC(O)c1ccc(-c2ccc3c(N4CCOCC4)nc(-c4ccc(NC(=O)Nc5ccc(C(=O)N(C)C)cc5)c(F)c4)nc3c2)o1 (configuration not stated),< 50 nM
9,CN(C)C(=O)c1ccc(NC(=O)Nc2ccc(-c3nc(N4CCOCC4)c4ncc(-c5cncnc5)cc4n3)cc2F)cc1,< 50 nM
10,CNC(=O)c1ccc(NC(=O)Nc2ccc(-c3nc(N4CCOCC4)c4ccc(-c5cccc(S(C)(=O)=O)c5)cc4n3)cc2)cc1,< 50 nM
11,CN(C)C(=O)c1ccc(NC(=O)Nc2ccc(-c3nc(N4CCOCC4)c4ccc(-c5cnc(N(C)C)nc5)cc4n3)c(F)c2)cc1,< 50 nM
12,COc1ncc(-c2ccc3c(N4CCOCC4)nc(-c4ccc(NC(=O)Nc5ccc(C(=O)N(C)C)cc5)cc4F)nc3c2)cn1,< 50 nM
13,CN(C)C(=O)c1ccc(NC(=O)Nc2ccc(-c3nc(N4CCOCC4)c4ccc(-c5cncnc5)cc4n3)c(F)c2F)cc1,50 to 200 nM
14,CN(C)C(=O)c1ccc(NC(=O)Nc2ccc(-c3nc(N4CCOCC4)c4ccc(-c5cncnc5)cc4n3)cn2)c(F)c1,< 50 nM
15,Cc1ccc(-c2ccc3c(N4CCOCC4)nc(-c4ccc(NC(=O)Nc5ccc(C(=O)N(C)C)cc5F)cc4)nc3c2)cn1,< 50 nM
16,CN(C)C(=O)c1ccc(NC(=O)Nc2ccc(-c3nc(N4CCOCC4)c4ncc(-c5cnn(C)c5)cc4n3)cc2)cc1F,< 50 nM
17,CN(C)C(=O)c1ccc(NC(=O)Nc2ccc(-c3nc(N4CCOCC4)c4ccc(-c5cnc6ccccc6c5)cc4n3)cc2)cc1,< 50 nM
18,COc1ccc(-c2ccc3c(N4CCOCC4)nc(-c4ccc(NC(=O)Nc5ccc(C(=O)N(C)C)cc5)cc4F)nc3c2)cn1,50 to 200 nM
19,CN(C)C(=O)c1ccc(NC(=O)Nc2ccc(-c3nc(N4CCOCC4)c4ccc(-c5ccc(N)nc5)cc4n3)cc2)c(F)c1,50 to 200 nM
20,CN(C)C(=O)c1ccc(NC(=O)Nc2ccc(-c3nc(N4CCOCC4)c4ccc(-c5cccc(S(C)(=O)=O)c5)cc4n3)cc2)cc1,< 50 nM
21,CN(C)C(=O)c1ccc(NC(=O)Nc2ccc(-c3nc(N4CCOCC4)c4ccc(-c5cccc(S(C)(=O)=O)c5)cc4n3)c(F)c2)cc1,< 50 nM
22,N[C@@H]1CCN(C(=O)c2ccc(NC(=O)Nc3ccc(-c4nc(N5CCOCC5)c5ccc(-c6cncnc6)cc5n4)cc3F)cc2)C1,< 50 nM
23,Cc1noc(C)c1-c1cnc2c(N3CCOCC3)nc(-c3ccc(NC(=O)Nc4ccc(C(=O)N(C)C)cc4)cc3)nc2c1,< 50 nM
24,CN(C)C(=O)c1ccc(NC(=O)Nc2ccc(-c3nc(N4CCOCC4)c4ccc(-c5cccnc5F)cc4n3)cc2)cn1,50 to 200 nM
